This passage reports Ki results from ChEMBL document CHEMBL1123334, “4-Amino-6-chloro-2-piperazinopyrimidines with selective affinity for alpha 2-adrenoceptors” (J Med Chem, 1986).

In experiment [1] the target is T1, Adrenergic receptor alpha-2 (Rattus norvegicus, UniProt P22086+P19328+P22909).
T1 sequence (P22086 whole entry): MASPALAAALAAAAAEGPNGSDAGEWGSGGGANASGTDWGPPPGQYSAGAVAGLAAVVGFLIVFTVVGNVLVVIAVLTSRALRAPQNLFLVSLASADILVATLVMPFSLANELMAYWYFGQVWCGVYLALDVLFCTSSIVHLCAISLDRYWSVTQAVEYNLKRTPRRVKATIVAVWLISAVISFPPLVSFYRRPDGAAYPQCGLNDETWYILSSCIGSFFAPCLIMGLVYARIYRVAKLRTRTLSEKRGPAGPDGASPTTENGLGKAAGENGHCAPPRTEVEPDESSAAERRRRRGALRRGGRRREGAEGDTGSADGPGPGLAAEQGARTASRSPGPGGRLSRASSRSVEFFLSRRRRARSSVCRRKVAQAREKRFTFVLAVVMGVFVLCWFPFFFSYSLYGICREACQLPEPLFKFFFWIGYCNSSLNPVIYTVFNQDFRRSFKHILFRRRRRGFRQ
T1 sequence (P19328 whole entry): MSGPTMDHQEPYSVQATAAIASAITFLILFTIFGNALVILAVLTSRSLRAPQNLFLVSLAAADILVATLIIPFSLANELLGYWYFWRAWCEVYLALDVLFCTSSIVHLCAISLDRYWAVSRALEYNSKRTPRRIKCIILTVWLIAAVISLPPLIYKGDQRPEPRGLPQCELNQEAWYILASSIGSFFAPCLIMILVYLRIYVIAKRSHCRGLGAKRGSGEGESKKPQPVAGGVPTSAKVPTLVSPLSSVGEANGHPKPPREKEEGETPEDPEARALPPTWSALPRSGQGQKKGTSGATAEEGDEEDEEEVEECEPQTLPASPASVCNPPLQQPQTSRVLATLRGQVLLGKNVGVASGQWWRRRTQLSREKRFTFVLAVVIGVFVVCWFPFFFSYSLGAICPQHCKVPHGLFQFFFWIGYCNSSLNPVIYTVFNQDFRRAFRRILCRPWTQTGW
T1 sequence (P22909 whole entry): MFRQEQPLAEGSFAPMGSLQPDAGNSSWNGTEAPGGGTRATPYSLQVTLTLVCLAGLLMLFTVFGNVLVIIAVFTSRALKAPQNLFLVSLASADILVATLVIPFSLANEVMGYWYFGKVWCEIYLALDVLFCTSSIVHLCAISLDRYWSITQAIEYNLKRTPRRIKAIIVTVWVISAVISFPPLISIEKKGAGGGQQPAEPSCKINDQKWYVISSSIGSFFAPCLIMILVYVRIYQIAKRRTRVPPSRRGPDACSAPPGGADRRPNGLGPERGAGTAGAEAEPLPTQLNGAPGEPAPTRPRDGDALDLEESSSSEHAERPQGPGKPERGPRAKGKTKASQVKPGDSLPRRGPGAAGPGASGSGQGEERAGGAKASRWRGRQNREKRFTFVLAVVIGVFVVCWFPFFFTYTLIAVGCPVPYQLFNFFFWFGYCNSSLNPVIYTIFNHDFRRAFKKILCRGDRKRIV

A further experiment addresses Dopamine receptor. Description: In vitro binding affinity to Dopamine receptors of rat striatal membranes by [3H]spiroperidol displacement.
The target in experiment [2] is T2, Adrenergic receptor alpha-1 (Rattus norvegicus, UniProt P15823+P23944+P43140).
T2 sequence (P15823 whole entry): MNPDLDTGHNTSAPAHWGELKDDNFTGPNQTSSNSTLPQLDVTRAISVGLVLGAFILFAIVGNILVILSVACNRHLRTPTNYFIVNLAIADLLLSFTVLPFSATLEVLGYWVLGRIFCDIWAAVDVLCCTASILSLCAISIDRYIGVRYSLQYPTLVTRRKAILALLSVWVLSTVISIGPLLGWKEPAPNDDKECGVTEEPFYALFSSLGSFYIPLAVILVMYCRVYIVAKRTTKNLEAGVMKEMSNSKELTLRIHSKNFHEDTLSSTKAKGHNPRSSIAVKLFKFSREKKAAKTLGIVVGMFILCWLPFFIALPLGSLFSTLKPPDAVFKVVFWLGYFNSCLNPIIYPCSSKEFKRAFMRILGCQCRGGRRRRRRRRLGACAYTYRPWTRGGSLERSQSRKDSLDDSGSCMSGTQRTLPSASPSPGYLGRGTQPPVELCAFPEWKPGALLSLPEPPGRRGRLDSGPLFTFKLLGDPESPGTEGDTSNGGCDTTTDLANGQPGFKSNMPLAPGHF
T2 sequence (P23944 whole entry): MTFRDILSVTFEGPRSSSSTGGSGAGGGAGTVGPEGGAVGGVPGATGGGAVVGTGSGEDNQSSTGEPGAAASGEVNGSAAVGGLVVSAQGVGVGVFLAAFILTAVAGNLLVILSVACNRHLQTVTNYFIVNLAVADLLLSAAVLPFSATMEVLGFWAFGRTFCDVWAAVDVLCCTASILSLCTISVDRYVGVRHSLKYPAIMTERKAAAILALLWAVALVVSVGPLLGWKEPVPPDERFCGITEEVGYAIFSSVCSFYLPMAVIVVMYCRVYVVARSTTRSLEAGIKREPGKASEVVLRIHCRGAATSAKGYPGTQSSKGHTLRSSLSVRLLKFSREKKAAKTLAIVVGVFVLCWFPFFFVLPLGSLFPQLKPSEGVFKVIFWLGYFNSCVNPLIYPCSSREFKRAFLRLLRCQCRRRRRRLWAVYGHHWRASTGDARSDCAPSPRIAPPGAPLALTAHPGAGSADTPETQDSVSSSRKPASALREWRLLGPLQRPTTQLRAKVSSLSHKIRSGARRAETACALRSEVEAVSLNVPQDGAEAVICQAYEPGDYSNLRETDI
T2 sequence (P43140 whole entry): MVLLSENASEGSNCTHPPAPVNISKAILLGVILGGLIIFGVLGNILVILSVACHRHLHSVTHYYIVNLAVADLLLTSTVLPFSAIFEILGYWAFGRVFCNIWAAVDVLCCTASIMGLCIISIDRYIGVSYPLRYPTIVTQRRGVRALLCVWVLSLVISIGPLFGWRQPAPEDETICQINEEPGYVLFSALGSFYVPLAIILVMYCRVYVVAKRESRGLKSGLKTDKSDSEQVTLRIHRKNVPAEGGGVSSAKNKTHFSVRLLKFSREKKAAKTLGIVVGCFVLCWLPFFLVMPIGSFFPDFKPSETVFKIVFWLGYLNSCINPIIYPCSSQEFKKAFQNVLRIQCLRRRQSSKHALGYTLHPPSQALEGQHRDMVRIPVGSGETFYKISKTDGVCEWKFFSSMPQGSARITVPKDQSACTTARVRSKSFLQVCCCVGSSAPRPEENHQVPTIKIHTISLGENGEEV
Put plainly: In vitro binding affinity was measured as the inhibition of [3H]WB-4101 binding to alpha-1 adrenergic receptor of rat cortical membranes. In kind it is cell membranes, Membrane.

Experiment [3] concerns the target T1, Adrenergic receptor alpha-2. Put plainly: Inhibition of [3H]idazoxan binding to alpha-2 adrenergic receptor of rat cortical membranes. It counts as cell membranes, Membrane.
Experiment [4] has the same target. Description: In vitro binding affinity was measured as the inhibition of [3H]idazoxan to alpha-2 adrenergic receptors of rat cortical membranes. It counts as cell membranes, Membrane.

Some results are limits rather than exact numbers.

Usually Ki stands for a measure of affinity in units of concentration, obtained from inhibition or displacement.

Regarding `CSc1c(Cl)nc(N2CCN(C)CC2)nc1NC(C)C`, the figures for the Ki (in experiment [1]; at Dopamine receptor; in experiment [2]) were 26 nM, 640 nM and 360 nM, respectively.
On to `CC(COc1ccccc1)N(CCCl)Cc1ccccc1` (stereo not drawn) [PHENOXYBENZAMINE], for which the Ki on Dopamine receptor was found to be 120 nM; in experiment [2], 1.8 nM.
As for `CN1CCN(c2nc(Cl)c(Br)c(NC3CCCC3)n2)CC1`, the Ki in experiment [3] stood at 230 nM; in experiment [1] it was 140 nM; in experiment [2], 250 nM.
For the molecule `CSc1c(Cl)nc(N2CCN(C)CC2)nc1NCCc1ccccc1`, the Ki in experiment [1] is 910 nM; at Dopamine receptor, 1400 nM; in experiment [2], 180 nM.
Turning to `CNc1nc(N2CCN(C)CC2)nc(Cl)c1OC`, the results for the inhibitory constant (Ki) in experiment [1] and in experiment [2] were 150 nM and 1700 nM, respectively.
`CC(C)Nc1nc(N2CCN(C)CC2)nc(Cl)c1Cl`: the Ki in experiment [1] worked out at 5 nM; in experiment [4] it was 14 nM; at Dopamine receptor it was 2400 nM; in experiment [2], 42 nM.
With `CNc1nc(N2CCN(C)CC2)nc(Cl)c1Br`, the Ki in experiment [1] was 150 nM; at Dopamine receptor, 200 nM; in experiment [2], 180 nM.
Take `CCNc1nc(N2CCN(C)CC2)nc(Cl)c1SC`: the Ki is 90 nM in experiment [1] and 1800 nM in experiment [2].
In the case of `CN1CCN(c2nc(N)c(Br)c(Cl)n2)CC1`, the figures for the Ki (in experiment [1]; on Dopamine receptor; in experiment [2]) were 1600 nM, 10000 nM and 820 nM, respectively.
Take `COc1c(Cl)nc(N2CCN(C)CC2)nc1NC(C)C`: the values for the Ki in experiment [1] and in experiment [2] were 50 nM and 310 nM, respectively.
As to `CSc1c(Cl)nc(N2CCN(C)CC2)nc1NC1CCCCC1`, the inhibitory constant (Ki) in experiment [1] is given as 290 nM; in experiment [2], 240 nM.
As for `CSc1c(N)nc(N2CCN(C)CC2)nc1Cl`, the Ki in experiment [1] is 620 nM; on Dopamine receptor, 1000 nM; in experiment [2] it was 820 nM.
For `CSc1c(Cl)nc(N2CCNCC2)nc1NC(C)C`, the inhibitory constant (Ki) in experiment [3] worked out at 62 nM; in experiment [1], 36 nM; at Dopamine receptor, 3000 nM; in experiment [2] it was 500 nM.
The matching figures for `COc1c(Cl)nc(N2CCN(C)CC2)nc1NC1CCCC1`: 29 nM, 50 nM, 670 nM and 1700 nM.
For `CNc1nc(N2CCN(C)CC2)nc(Cl)c1Cl`, the Ki in experiment [1] worked out at 44 nM; at Dopamine receptor, 1200 nM; in experiment [2], 4 nM.
The matching figures for `Cc1c(Cl)nc(N2CCN(C)CC2)nc1NC(C)C`: 16 nM, 880 nM and 200 nM.
Take `CNc1cc(Cl)nc(N2CCN(C)CC2)n1`: the Ki is given as 100 nM in experiment [3], 50 nM in experiment [1], 630 nM on Dopamine receptor and 280 nM in experiment [2].
On to `CSc1c(Cl)nc(N2CCN(C)CC2)nc1Nc1ccccc1`, for which the inhibition constant (Ki) in experiment [3] was 500 nM; in experiment [1], 240 nM; in experiment [2], 140 nM.
On to `CSc1c(Cl)nc(N2CCN(C)CC2)nc1NC1CCCC1`, for which the figures for the Ki (in experiment [1]; on Dopamine receptor; in experiment [2]) were 22 nM, 1200 nM and 76 nM, respectively.
For `CC(C)Nc1nc(N2CCN(C)CC2)nc(Cl)c1Br`, the Ki is 7 nM in experiment [1], 480 nM on Dopamine receptor and 290 nM in experiment [2].
Consider `COC(=O)[C@@H]1[C@H]2C[C@H]3c4[nH]c5ccccc5c4CCN3C[C@@H]2CC[C@@H]1O` [YOHIMBINE], for which, on Dopamine receptor, the Ki is reported as 2000 nM.
Regarding `CNc1nc(N2CCN(C)CC2)nc(Cl)c1SC`, the Ki in experiment [1] is recorded as 360 nM; in experiment [2], 1800 nM.
`Clc1cccc(Cl)c1NC1=NCCN1` [CLONIDINE]: the inhibitory constant (Ki) at Dopamine receptor was greater than 4000 nM.
As to `Cc1c(Cl)nc(N2CCNCC2)nc1NC(C)C`, the Ki in experiment [3] was 13 nM; in experiment [1], 6 nM; at Dopamine receptor, 2900 nM; in experiment [2], 860 nM.
In the case of `CSc1c(Cl)nc(N2CCN(C)CC2)nc1NCc1ccccc1`, the Ki turned out to be 1500 nM in experiment [1], 14 nM at Dopamine receptor and 100 nM in experiment [2].
`CN1CCN(c2nc(N)c(Cl)c(Cl)n2)CC1`: the inhibition constant Ki in experiment [1] was 50 nM; in experiment [2], 67 nM.
On to `CNc1nc(Cl)c(SC)c(N2CCN(C)CC2)n1` [MEZILAMINE], for which the Ki is 12 nM in experiment [3], 9 nM in experiment [1] and 91 nM in experiment [2].
For `CN1CCN(c2nc(Cl)c(Cl)c(NC3CCCC3)n2)CC1`, the Ki was 120 nM in experiment [1], 97 nM in experiment [4] and 240 nM in experiment [2].
Turning to `CC(C)Nc1cc(Cl)nc(N2CCN(C)CC2)n1`, the Ki is 130 nM in experiment [1], 200 nM in experiment [4] and greater than 180 nM in experiment [2].
`CSc1c(Cl)nc(N2CCN(C)CC2)nc1NC(C)(C)C`: the values for the inhibition constant (Ki) (in experiment [1]; on Dopamine receptor; in experiment [2]) were 180 nM, 920 nM and 450 nM, respectively.
Consider `CC(C)Nc1nc(N2CCNCC2)nc(Cl)c1Br`, for which the inhibition constant Ki in experiment [3] was found to be 28 nM; in experiment [1], 16 nM; on Dopamine receptor, 880 nM; in experiment [2], 200 nM.
